Experimental data taken from US20230416329A1, “A PEPTIDE WITH DISULFIDE BONDS AND INHIBITORY ACTIVITY AGAINST SERINE PROTEASES, DERIVED HYBRID PEPTIDES THEREOF, AND USES THEREOF” (INSTITUTE OF MATERIA MEDICA , CHINESE ACADEMY OF MEDICAL …, priority 2020, published 2023).
Values after ≈ are worked out from the molar mass of the structure shown. Bridge positions count the residues as written; N and C are the ends. Ends that are not written are not given here. Peptide text beside a SMILES is read from it.

What was measured:
[1] = target: elastase (Sus scrofa, UniProt P00772); assay: in vitro; conditions: for remaining at 0.025 h, 60 μM / remaining at 0.05 h, 60 μM / remaining at 0.075 h, 60 μM / remaining at 0.1 h, 60 μM / remaining at 0.15 h, 60 μM / remaining at 0.25 h, 60 μM / remaining at 0.5 h, 60 μM / remaining at 1 h, 60 μM: isolated enzyme elastase, pH 8, Residual peak area (%)/elastase
Chain of elastase (P00772 27-266): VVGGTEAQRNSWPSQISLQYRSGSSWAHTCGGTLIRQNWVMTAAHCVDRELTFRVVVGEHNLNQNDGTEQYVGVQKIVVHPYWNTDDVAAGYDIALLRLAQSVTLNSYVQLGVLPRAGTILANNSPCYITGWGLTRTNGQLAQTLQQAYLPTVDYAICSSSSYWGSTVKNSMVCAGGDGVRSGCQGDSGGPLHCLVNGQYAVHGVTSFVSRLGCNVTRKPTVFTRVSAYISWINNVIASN
Protocol: FIG. 19. […] At different time point, 25 μL aliquots was taken out, and 10% (v/v) TFA was added to terminate the reaction.
Mix by centrifugation at 8000 rpm for 30 seconds.
Arrange a certain volume of 0.5 μg/μL elastase solution in another sterile EP. Incubate the EP tubes containing peptides and enzymes at 37° C. for 5 min, and then add 4.5 μL of elastase solution to each EP tube containing peptides and mix well. Start timing and remove 25 μL of reaction solution at 1.5, 3.0, 4.5, 6.0, 9.0, 15.0, 30.0, and 60.0 min later, respectively. Add 3.75 μL of 10% TFA to terminate the reaction and mix well by centrifugation at 8000 rpm for 30 seconds.
Referring to the experimental method in Example 5, in vitro stability of salmon Calcitonin analogs with oral administration activity to the enzymatic hydrolysis by trypsin, chymotrypsin and elastase were performed.
Referring to the experimental method in Example 5, in vitro stability of IL-17A inhibitory peptides towards the enzymatic hydrolysis by trypsin, chymotrypsin and elastase were performed.

[2] = target: T1, interaction of PCSK9-LDLR (Homo sapiens, UniProt Q8NBP7); assay: PCSK9-LDLR in vitro binding assay (inhibitory rate); conditions: for inhibition at 50 µM: sample 50 μM, PCSK9 75 ng/mL; for inhibitory activity on the interaction between PCSK9 and LDLR (in words): in vitro
T1 construct: purchased MBL Company, Beijing, China CY-8150
Protocol: Polypeptide PCSK9_1-14 (SEQ ID NOs: 210-223) is dissolved in pure water or DMSO. 85 μL reaction buffer, 5 μL 1 mM polypeptide sample and 10 μL 750 ng/mL PCSK9 protein was pre-incubated at room temperature for 20 minutes before being added to a 96 well plate. The OD450/540 nm value was measured according to the instructions of the PCSK9-LDLR in Vitro Binding Assay Kit (CY-8150, MBL Company, Beijing, China). Solvent control: replace polypeptide with 5 μL solvent. In 100 μL reaction system, the final concentration of the polypeptide and PCSK9 is 50 μM and 75 ng/mL, respectively.
Inhibition rate of polypeptide (%)=(OD450/540 nm(solvent control)−OD450/540 nm (sample))/OD450/540 nm(solvent control)×100

[3] = target: chymotrypsin (Bos taurus, UniProt P00766); assay: in vitro; conditions: for remaining at 0.025 h, 60 μM / remaining at 0.05 h, 60 μM / remaining at 0.075 h, 60 μM / remaining at 0.1 h, 60 μM / remaining at 0.15 h, 60 μM / remaining at 0.25 h, 60 μM / remaining at 0.5 h, 60 μM / remaining at 1 h, 60 μM: isolated enzyme chymotrypsin, pH 7.8, Residual peak area (%)/chymotrypsin
Summary of the method: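 Peptide and 0.05 μg/μL chymotrypsin were preincubated at 37 °C for 5 min, then mixed. Aliquots taken from 1.5 up to 60.0 min were quenched with 10% TFA, and remaining peptide was measured as RP-HPLC peak area.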

[4] = system: P407-induced hyperlipidemia mice; assay: Subcutaneous injection of PCSK9 inhibitory peptide, serum total cholesterol in P407-induced hyperlipidemia mice; format: in vivo, mouse; conditions: for TC 30 min: 30 min after administration; for TC 60 min: 60 min after administration; for TC 90 min: 90 min after administration
Protocol: The experimental peptide sample was prepared using PEG400 with a final concentration of […], and the final concentration of PEG400 is 20% (w/v). Normal ICR mice were fasted overnight with water ad libitum. The next day, all of the mice were randomly divided into model control group (Con) and polypeptide administration group (2 μmol/kg) according to body weight. Then, all of the mice were intraperitoneally injected with P407 (500 mg/kg) and fed with feed 2 hours later. Six mice were taken as a normal control group (Nor). After 24 hours, the mice in Con were subcutaneously injected with saline containing 20% PEG400, and the mice in the treatment group were given peptides. Then, the blood was taken at different time points after administration to determine the serum total cholesterol (TC) level. In consideration of the complexity of factors affecting serum LDL-C levels, especially the differences between single and long-term administration, the in vivo activity of PCSK9 inhibitory peptide is mainly observed for changes in serum TC levels.

[5] = target: T2, trypsin (Bos taurus, UniProt P00760); assay: in vitro
T2 sequence (P00760 24-246): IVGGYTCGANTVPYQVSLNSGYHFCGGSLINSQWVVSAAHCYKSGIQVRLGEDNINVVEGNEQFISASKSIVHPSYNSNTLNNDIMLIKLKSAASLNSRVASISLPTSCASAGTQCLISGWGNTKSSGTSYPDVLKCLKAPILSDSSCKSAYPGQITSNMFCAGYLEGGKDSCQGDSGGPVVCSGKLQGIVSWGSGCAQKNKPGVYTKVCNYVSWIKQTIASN
Summary of the method: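 Peptides were preincubated for 5 min at 37 °C and then digested with 0.05 μg/μL trypsin solution (stock). Remaining intact peptide was quantified as RP-HPLC peak area.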

[6] = serum, subcutaneous 2 μmol/kg, mean ± sd

For `CC[C@H](C)[C@@H]1NC(=O)[C@@H]2CCCN2C(=O)[C@@H]2CCCN2C(=O)[C@H]([C@@H](C)CC)NC(=O)[C@H](CO)NC(=O)[C@H](CCCCN)NC(=O)[C@H]([C@@H](C)O)NC(=O)[C@H](C)NC(=O)[C@H](CCCNC(=N)N)NC(=O)CNC(=O)[C@@H](NC(=O)[C@@H](NC(=O)[C@H](Cc2ccc(O)cc2)NC(=O)[C@H](CC(=O)O)NC(=O)[C@H](CC(C)C)NC(=O)[C@H](Cc2ccc(O)cc2)NC(=O)[C@H](CCC(=O)O)NC(=O)[C@H](CCC(=O)O)NC(=O)[C@@H](N)Cc2c[nH]c3ccccc23)C(C)C)CSSC[C@@H](C(=O)N[C@@H](Cc2ccccc2)C(=O)NCC(=O)N[C@H](C(=O)N[C@H](C(=O)N[C@@H](Cc2ccccc2)C(=O)N[C@H](C(=O)N[C@@H](CO)C(=O)O)[C@@H](C)O)C(C)C)[C@@H](C)O)NC1=O` [PCSK9_6] (H-WEEYLDYVCGRATKSIPPICFGTVFTS-OH; disulfide 9-20), the “Residual peak area (%)/elastase” value [1] was 100.0 ± 0.0%, the “stability towards elastase hydrolysis (in words)” value [1] was “certain inhibitory effects on the other two proteases chymotrypsin and elastase” and the remaining at 0.025 h, 60 μM [1] was 62.9 ± 4.8%. For the same compound, the remaining at 0.05 h, 60 μM [1] was 59.3 ± 10.9%, the remaining at 0.075 h, 60 μM [1] was 56.4 ± 5.3% and the remaining at 0.1 h, 60 μM [1] was 55.3 ± 6.8%. For the same compound, the remaining at 0.15 h, 60 μM [1] was 67.8 ± 9.3%, the remaining at 0.25 h, 60 μM [1] was 48.9 ± 9.4% and the remaining at 0.5 h, 60 μM [1] was 39.6 ± 1.2%. For the same compound, the remaining at 1 h, 60 μM [1] was 48.3 ± 9.4%, the inhibition at 50 µM [2] was 87 ± 1.1% and the “Residual peak area (%)/chymotrypsin” value [3] was 100.0 ± 0.0%. The “stability towards chymotrypsin hydrolysis (in words)” value [3] was “certain inhibitory effects on the other two proteases chymotrypsin and elastase”, the remaining at 0.025 h, 60 μM [3] was 59.9 ± 8.2% and the remaining at 0.05 h, 60 μM [3] was 47.1 ± 8%. For the same compound, the remaining at 0.075 h, 60 μM [3] was 33.6 ± 3%, the remaining at 0.1 h, 60 μM [3] was 33.9 ± 3.2% and the remaining at 0.15 h, 60 μM [3] was 25.9 ± 3.3%. For the same compound, the remaining at 0.25 h, 60 μM [3] was 14.5 ± 0.8%, the remaining at 0.5 h, 60 μM [3] was 2.2 ± 0.1% and the remaining at 1 h, 60 μM [3] was 1 ± 0.9%.
“Thr-Val-Phe-Thr-Ser-Gly-Phe-Cys-Thr-Tyr-Ser-Ile-Pro-Pro-Gln-Cys-Tyr-Gly-Trp-Glu-Glu-Tyr-Leu-Asp-Trp-Val (TVFTSGFCTYSIPPQCYGWEEYLDWV; disulfide 8-16 (inferred)) [PCSK9_9CH]” was tested, and the “inhibitory activity on the interaction between PCSK9 and LDLR (in words)” value [2] was “good inhibitory activity on the interaction between PCSK9 and LDLR”, the “inhibitory activity on the interaction between PCSK9 and LDLR (in words)” value ([2]; listed as SEQ ID NO: 232) was “good inhibitory effects in vitro” and the “TC 15 min” value ([4]; serum, subcutaneous 2 μmol/kg, 15 min after administration, mean ± sd) was 3727 ± 1154 µg/mL. For the same compound, the “TC 30 min” value [4, 6] was 4212 ± 753 µg/mL, the “TC 60 min” value [4, 6] was 3658 ± 664 µg/mL and the “TC 90 min” value [4, 6] was 2891 ± 710 µg/mL.
With `CC(C)C[C@H](NC(=O)[C@H](Cc1ccc(O)cc1)NC(=O)[C@H](CCC(=O)O)NC(=O)[C@H](CCC(=O)O)NC(=O)[C@H](Cc1c[nH]c2ccccc12)NC(=O)[C@H](CO)NC(=O)[C@@H](NC(=O)[C@H](Cc1ccccc1)NC(=O)[C@@H](NC(=O)[C@@H](N)[C@@H](C)O)C(C)C)[C@@H](C)O)C(=O)N[C@@H](CC(=O)O)C(=O)N[C@@H](Cc1c[nH]c2ccccc12)C(=O)N[C@H](C(=O)O)C(C)C` [PCSK9_1, reference compound] the “stability towards trypsin hydrolysis (in words)” value [5] was “stable towards trypsin”, the “Residual peak area (%)/elastase” value [1] was 100.0 ± 0.0% and the “stability towards elastase hydrolysis (in words)” value [1] was “easily degraded by chymotrypsin and elastase”. For the same compound, the remaining at 0.025 h, 60 μM [1] was 95.4 ± 0.9%, the remaining at 0.05 h, 60 μM [1] was 90.6 ± 2.4% and the remaining at 0.075 h, 60 μM [1] was 83.3 ± 1.8%. For the same compound, the remaining at 0.1 h, 60 μM [1] was 85.5 ± 2.7%, the remaining at 0.15 h, 60 μM [1] was 79.6 ± 0.8% and the remaining at 0.25 h, 60 μM [1] was 66.8 ± 0.8%. For the same compound, the remaining at 0.5 h, 60 μM [1] was 52.9 ± 1.5%, the remaining at 1 h, 60 μM [1] was 28.9 ± 0.7% and the inhibition at 50 µM [2] was 26 ± 10%. For the same compound, the “serum total cholesterol (TC) level after subcutaneous injection (in words)” value ([4]; 2 μmol/kg single s.c., P407-induced hyperlipidemia mice) was “little effect on lowering total cholesterol”, the “TC 30 min” value [4, 6] was 3925 ± 1330 µg/mL (≈ 2340 µM) and the “TC 60 min” value [4, 6] was 3350 ± 1117 µg/mL (≈ 2000 µM). For the same compound, the “TC 90 min” value [4, 6] was 3832 ± 1259 µg/mL (≈ 2290 µM), the “TC 120 min” value ([4]; serum, subcutaneous 2 μmol/kg, 120 min after administration, mean ± sd) was 370.4 ± 122.3 mg/dL and the “Residual peak area (%)/chymotrypsin” value [3] was 100.0 ± 0.0%. The “stability towards chymotrypsin hydrolysis (in words)” value [3] was “easily degraded by chymotrypsin and elastase”, the remaining at 0.025 h, 60 μM [3] was 82.3 ± 5% and the remaining at 0.05 h, 60 μM [3] was 80.7 ± 3.3%. For the same compound, the remaining at 0.075 h, 60 μM [3] was 80.1 ± 2%, the remaining at 0.1 h, 60 μM [3] was 79.1 ± 5.6% and the remaining at 0.15 h, 60 μM [3] was 75.5 ± 1.6%. For the same compound, the remaining at 0.25 h, 60 μM [3] was 71.2 ± 2.4%, the remaining at 0.5 h, 60 μM [3] was 62.7 ± 2.6% and the remaining at 1 h, 60 μM [3] was 47.7 ± 2%.
